{"source": "patent US20140199346A1", "about": "(priority 2009, published 2014)", "key": {"[1]": {"system": "H1N1 subtype of influenza virus A/PR/8", "test": "Test Example 1: oral administration to mice infected with influenza virus (1,000 pfu/mouse), body weights and survival rates", "format": "in vivo", "procedure": "Test solutions were prepared for the test groups and control group shown in Table 1 below, respectively, and effects of oral administration of the solutions on mice infected with an influenza virus were examined. It should be noted that “Tamiflu dry syrup 3%” (product name, Chugai Pharmaceutical Co., Ltd.) was used as an anti-influenza drug oseltamivir.\nAs experimental animals, mice (C57BL/6NJc1, male, 6 weeks old) were used, and as the influenza virus, H1N1 subtype of influenza virus A/PR/8 was used. Infection of the mice with the influenza virus was carried out as follows. That is, the mice were placed in a container filled with isoflurane, and taken out after confirming that their breathing became slow. […] After confirming that the mice recovered from anesthesia, the mice were returned to breeding cages.\nIt should be noted that the culture solution of Aureobasidium (Test group 1) was orally administered every day during the test period by a sonde method once a day in an amount of 200 μL. […] The body weights of the mice after infection with the virus were measured every day, and transition of the body weights and survival rates were determined."}, "[2]": {"system": "H1N1 subtype of influenza virus A/PR/8", "test": "Test Example 2: oral administration to mice infected with influenza virus (2,000 pfu/mouse), body weights and survival rates", "format": "in vivo", "procedure": "It should be noted that the phrase “dead bacterial cells of EF lactic acid bacterium” in the table means a commercially available heat-sterilized bacterial cell powder of Enterococcus faecalis.\nInfection of mice used as experimental animals with the influenza virus was carried out so that the virus titer was twice as large as that in Test Example 1. That is, the infection was carried out in the same manner as in Test Example 1 except that a diluted virus solution having a virus titer of 4×10^4 pfu/mL was injected from both nasal cavities alternately using a micropipette in an amount of 50 μL (2,000 pfu/mouse).\nThat is, in the case of each of Test groups 3 to 5 and Control group 2, the test solution was orally administered every day during the test period by the sonde method once a day in an amount of 200 μL. […]\nThe body weights of the mice after infection with the virus were measured every day, and transition of the body weights and survival rates were determined."}, "[3]": {"system": "H1N1 subtype of influenza virus A/PR/8", "test": "Test Example 4: virus titer in lung of mouse (plaque count on MDCK cells)", "format": "in vivo, mice", "procedure": "In order to study mechanisms of the effects shown in Test Examples 1 to 3, influences on a virus titer in the lung of a mouse infected with the influenza virus were examined. Specifically, test solutions were prepared for the test groups and control group shown in Table 7 below, respectively, and orally administered, and the virus titer in the lung of each mouse infected with the influenza virus was examined. It should be noted that the phrase “dead bacterial cells of EF lactic acid bacterium” in the table means a commercially available heat-sterilized bacterial cell powder of Enterococcus faecalis.\nThat is, the mice were infected with the influenza virus in the same manner as in Test Example 2 except that the period after the beginning of administration of the test solutions was changed to one week. […] In the case of Test group 14, the test was carried out in the same manner as in Test group 13 except that the dead bacterial cells of the lactic acid bacterium (6.7×10^9 cells) were used in combination as a suspension in 200 μL of the culture solution of Aureobasidium. In addition, in the case of Test group 15, to which only oseltamivir was administered, in order to carry out comparison with the maximum effect of administration of only oseltamivir, oseltamivir was orally administered continuously every day (morning and evening, in an amount of 200 μL per dose) after virus infection.\nThe virus titer in the lung of a mouse was measured as follows.\nOn day 1, day 3, and day 5 of virus infection, three mice of each group were dissected, and the lung washed with PBS to remove blood was collected. The collected lung was crushed, and the tissue was separated as a cell suspension and then centrifuged at 5,000 rpm for 10 minutes. The supernatant was collected and used as a sample. The collected sample was diluted serially in 10-fold steps with 1×MEM to concentrations ranging from 10^−1 to 10^−6. On the other hand, MDCK cells were cultured from the previous day, and a state in which the MDCK cells (one sample: one 12-well plate) were proliferated to confluency was confirmed. Then, the medium of the MDCK cells was removed, and the cells were washed with 1 ml of PBS. PBS used for washing was removed, and each of the samples diluted serially was added in an amount of 100 μL, and then the plate was allowed to stand still in a 5% CO2 incubator (37° C.) for one hour. During incubation, the plate was shaken every 15 minutes to prevent the cells from drying. Subsequently, 2×MEM was mixed with an equal amount of a 1.6% agar solution, and trypsin was added so as to reach a final concentration of 0.0005% to prepare a MEM-agar solution. The solution was warmed in a water bath at 42° C. One hour later, the virus solution was removed, and the cells were washed with 1 ml of PBS. The prepared MEM-agar solution was added to each well in an amount of 1 ml, and the plate was allowed to stand for a while until the agar was solidified. After that, the cells were cultured in a 5% CO2 incubator (35° C.), and 48 hours later, the number of plaques was counted."}, "NK cells": {"system": "NK cells", "set-up": "species or system mice", "conditions": "mouse, in vivo"}, "T cells": {"system": "T cells", "set-up": "species or system mice", "conditions": "mouse, in vivo"}}, "note": "Entries after “also recorded” stand apart in the source; their conditions may differ."}
{"compound": "CCOC(=O)C1=C[C@@H](OC(CC)CC)[C@H](NC(C)=O)[C@@H](N)C1", "note": "[Test group 2, oseltamivir]", "values": [{"measurement": "survival rate", "setting": "[1]; 1,000 pfu/mouse, oral, until day 14 of infection, 3 mice", "value": 100, "unit": "%"}, {"measurement": "body weight increase at the end of the test (day 14 of infection) as compared to the first day of infection", "setting": "[1]; individual mouse, 1,000 pfu/mouse", "value": 5, "unit": "%"}, {"measurement": "body weight at completion of the test", "setting": "[1]; individual mouse, after recovery, day 14 of infection", "value": "same body weight as that on the first day of infection"}, {"measurement": "body weight decrease at completion of the test as compared to the first day of infection", "setting": "[1]; individual mouse, day 14 of infection", "value": 3, "unit": "%"}, {"measurement": "body weight decreased by up to", "setting": "[1]; individual mouse, maximum loss after infection, 1,000 pfu/mouse", "value": "about 20%; also recorded: about 25%"}, {"measurement": "body weights decreased by up to", "setting": "[2]; mice whose body weight decreased", "value": "about 34%"}, {"measurement": "mice died during the test period", "setting": "[2]; oral, until day 17 of infection", "value": 50, "unit": "%"}, {"measurement": "Comparison of virus titers (virus titer for administration of PBS on each day after infection is defined as 1)", "setting": "[3]; 1 day after infection", "value": "1/5"}, {"measurement": "Comparison of virus titers (virus titer for administration of PBS on each day after infection is defined as 1)", "setting": "[3]; 3 days after infection", "value": "1/53"}, {"measurement": "Comparison of virus titers (virus titer for administration of PBS on each day after infection is defined as 1)", "setting": "[3]; 5 days after infection", "value": "1/89"}, {"measurement": "mouse lung virus titer", "setting": "[3]; day 1 of infection", "value": 5.88, "unit": "log10 PFU"}, {"measurement": "increase of lung virus titer as compared to day 1 of infection", "setting": "[3]; day 3 of infection", "value": 15.4, "unit": "fold"}, {"measurement": "mouse lung virus titer", "setting": "[3]; day 3 of infection", "value": 6.83, "unit": "log10 PFU"}, {"measurement": "increase of lung virus titer as compared to day 1 of infection", "setting": "[3]; day 5 of infection", "value": 122, "unit": "fold"}, {"measurement": "mouse lung virus titer", "setting": "[3]; day 5 of infection", "value": 7.76, "unit": "log10 PFU"}, {"measurement": "ratio of NK cells in viable cells in the lung", "setting": "NK cells", "value": "about 1.8%"}, {"measurement": "ratio of NK cells in viable cells relative to Control group", "setting": "NK cells", "value": "about one-quarter"}, {"measurement": "ratio of activated NK cells in the NK cells", "setting": "NK cells", "value": 46.2, "unit": "%"}, {"measurement": "number of activated T cells relative to Control group 5", "setting": "T cells", "value": "about one-third"}, {"measurement": "ratio of activated T cells in the T cells", "setting": "T cells", "value": 7.3, "unit": "%"}]}
